Source: the supplement of paper PMC10307832

Legend:
Assay in all cases: relative viability (nuclei count vs DMSO), 5 days (fraction); higher = more cells survive
BEN = system: BEN
Outline: (§1)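 Each reported value is a median over duplicate plates. It expresses relative viability: treated-well nuclei count divided by vehicle-well nuclei count. Lung cancer cell lines in 1536-well plates were dosed by pin tool a day after seeding, alone with one drug or with a fixed anchor-drug dose plus five library-drug doses (not always all listed) in √10 steps, and nuclei were counted after 5 days.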

NCI-H1915 = system: NCI-H1915
Outline: as §1

NCI-H2405 = system: NCI-H2405
Outline: as §1

EMC-BAC-2 = system: EMC-BAC-2
Outline: as §1

NCI-H1563 = system: NCI-H1563
Outline: as §1

NCI-H647 = system: NCI-H647
Outline: as §1

NCI-H1993 = system: NCI-H1993
Outline: as §1

HCC-15 = system: HCC-15
Outline: as §1

COR-L23 = system: COR-L23
Outline: as §1

HCC-78 = system: HCC-78
Outline: as §1

PC-14 = system: PC-14
Outline: as §1

201T = system: 201T
Outline: as §1

HOP-62 = system: HOP-62
Outline: as §1

HCC-366 = system: HCC-366
Outline: as §1

NCI-H460 = system: NCI-H460
Outline: as §1

EKVX = system: EKVX
Outline: as §1

COR-L 105 = system: COR-L 105
Outline: as §1

NCI-H1734 = system: NCI-H1734
Outline: as §1

A-427 = system: A-427
Outline: as §1

NCI-H661 = system: NCI-H661
Outline: as §1

For `CCNC(=O)c1noc(-c2cc(C(C)C)c(O)cc2O)c1-c1ccc(CN2CCOCC2)cc1` [Luminespib] + CC(C)C[C@H](NC(=O)[C@H](Cc1ccccc1)NC(=O)c1cnccn1)B(O)O [Bortezomib] (partner 0.002 µM), the relative viability (BEN; first compound 0.002 µM) was 0.914, the relative viability (BEN; first compound 0.006325 µM) was 0.542 and the relative viability (BEN; first compound 0.02 µM) was 0.438. It also gave a relative viability (BEN; first compound 0.06325 µM) of 0.424, a relative viability (BEN; first compound 0.2 µM) of 0.239 and a relative viability (NCI-H1915; first compound 0.002 µM) of 0.976. It also gave a relative viability (NCI-H1915; first compound 0.006325 µM) of 0.995, a relative viability (NCI-H1915; first compound 0.02 µM) of 1.02 and a relative viability (NCI-H1915; first compound 0.06325 µM) of 0.942. It also gave a relative viability (NCI-H1915; first compound 0.2 µM) of 0.442, a relative viability (NCI-H2405; first compound 0.002 µM) of 0.987 and a relative viability (NCI-H2405; first compound 0.006325 µM) of 0.533. It also gave a relative viability (NCI-H2405; first compound 0.02 µM) of 0.835, a relative viability (NCI-H2405; first compound 0.06325 µM) of 0.9 and a relative viability (NCI-H2405; first compound 0.2 µM) of 0.358. For the same compound, the relative viability (EMC-BAC-2; first compound 0.002 µM) was 1.1, the relative viability (EMC-BAC-2; first compound 0.006325 µM) was 1.02 and the relative viability (EMC-BAC-2; first compound 0.02 µM) was 0.844. The relative viability (EMC-BAC-2; first compound 0.06325 µM) was 1.1, the relative viability (EMC-BAC-2; first compound 0.2 µM) was 0.913 and the relative viability (NCI-H1563; first compound 0.002 µM) was 0.956. It also gave a relative viability (NCI-H1563; first compound 0.006325 µM) of 0.821, a relative viability (NCI-H1563; first compound 0.02 µM) of 0.535 and a relative viability (NCI-H1563; first compound 0.06325 µM) of 0.479. It also gave a relative viability (NCI-H1563; first compound 0.2 µM) of 0.507, a relative viability (NCI-H647; first compound 0.002 µM) of 0.999 and a relative viability (NCI-H647; first compound 0.006325 µM) of 0.987. It also gave a relative viability (NCI-H647; first compound 0.02 µM) of 0.29, a relative viability (NCI-H647; first compound 0.06325 µM) of 0.0859 and a relative viability (NCI-H647; first compound 0.2 µM) of 0.0972. It also gave a relative viability (NCI-H1993; first compound 0.002 µM) of 0.998, a relative viability (NCI-H1993; first compound 0.006325 µM) of 1.12 and a relative viability (NCI-H1993; first compound 0.02 µM) of 0.68. For the same compound, the relative viability (NCI-H1993; first compound 0.06325 µM) was 0.816, the relative viability (NCI-H1993; first compound 0.2 µM) was 0.374 and the relative viability (HCC-15; first compound 0.002 µM) was 1.03. It also gave a relative viability (HCC-15; first compound 0.006325 µM) of 0.906, a relative viability (HCC-15; first compound 0.02 µM) of 1.11 and a relative viability (HCC-15; first compound 0.06325 µM) of 0.517. The relative viability (HCC-15; first compound 0.2 µM) was 0.152, the relative viability (COR-L23; first compound 0.002 µM) was 1.02 and the relative viability (COR-L23; first compound 0.006325 µM) was 0.85. The relative viability (COR-L23; first compound 0.02 µM) was 0.718, the relative viability (COR-L23; first compound 0.06325 µM) was 0.079 and the relative viability (COR-L23; first compound 0.2 µM) was 0.079. For the same compound, the relative viability (HCC-78; first compound 0.002 µM) was 0.441, the relative viability (HCC-78; first compound 0.006325 µM) was 0.527 and the relative viability (HCC-78; first compound 0.06325 µM) was 0.745. For the same compound, the relative viability (HCC-78; first compound 0.2 µM) was 0.262, the relative viability (PC-14; first compound 0.002 µM) was 0.956 and the relative viability (PC-14; first compound 0.006325 µM) was 0.788. The relative viability (PC-14; first compound 0.02 µM) was 0.988, the relative viability (PC-14; first compound 0.06325 µM) was 0.314 and the relative viability (PC-14; first compound 0.2 µM) was 0.0725. For the same compound, the relative viability (201T; first compound 0.002 µM) was 1.11, the relative viability (201T; first compound 0.006325 µM) was 1.07 and the relative viability (201T; first compound 0.02 µM) was 0.937. For the same compound, the relative viability (201T; first compound 0.06325 µM) was 1.09, the relative viability (201T; first compound 0.2 µM) was 1.09 and the relative viability (HOP-62; first compound 0.002 µM) was 0.652. It also gave a relative viability (HOP-62; first compound 0.006325 µM) of 0.924, a relative viability (HOP-62; first compound 0.02 µM) of 0.852 and a relative viability (HOP-62; first compound 0.06325 µM) of 0.856. For the same compound, the relative viability (HOP-62; first compound 0.2 µM) was 0.0907, the relative viability (HCC-366; first compound 0.002 µM) was 1.01 and the relative viability (HCC-366; first compound 0.006325 µM) was 1.01. For the same compound, the relative viability (HCC-366; first compound 0.02 µM) was 0.474, the relative viability (HCC-366; first compound 0.06325 µM) was 0.025 and the relative viability (HCC-366; first compound 0.2 µM) was 0.0174. It also gave a relative viability (NCI-H460; first compound 0.002 µM) of 1.09, a relative viability (NCI-H460; first compound 0.006325 µM) of 1.14 and a relative viability (NCI-H460; first compound 0.02 µM) of 0.0229. For the same compound, the relative viability (NCI-H460; first compound 0.06325 µM) was 0.011, the relative viability (NCI-H460; first compound 0.2 µM) was 0.0138 and the relative viability (EKVX; first compound 0.002 µM) was 0.998. For the same compound, the relative viability (EKVX; first compound 0.006325 µM) was 1.03, the relative viability (EKVX; first compound 0.02 µM) was 0.852 and the relative viability (EKVX; first compound 0.06325 µM) was 0.824. The relative viability (EKVX; first compound 0.2 µM) was 0.0943, the relative viability (COR-L 105; first compound 0.002 µM) was 0.992 and the relative viability (COR-L 105; first compound 0.006325 µM) was 0.75. It also gave a relative viability (COR-L 105; first compound 0.02 µM) of 0.342, a relative viability (COR-L 105; first compound 0.06325 µM) of 0.176 and a relative viability (COR-L 105; first compound 0.2 µM) of 0.206. It also gave a relative viability (NCI-H1734; first compound 0.002 µM) of 1.06, a relative viability (NCI-H1734; first compound 0.006325 µM) of 0.823 and a relative viability (NCI-H1734; first compound 0.02 µM) of 0.698. It also gave a relative viability (NCI-H1734; first compound 0.06325 µM) of 0.118, a relative viability (NCI-H1734; first compound 0.2 µM) of 0.117 and a relative viability (A-427; first compound 0.002 µM) of 1.04. For the same compound, the relative viability (A-427; first compound 0.006325 µM) was 0.926, the relative viability (A-427; first compound 0.02 µM) was 0.811 and the relative viability (A-427; first compound 0.06325 µM) was 0.94. The relative viability (A-427; first compound 0.2 µM) was 0.584, the relative viability (NCI-H661; first compound 0.002 µM) was 0.886 and the relative viability (NCI-H661; first compound 0.006325 µM) was 0.773. The relative viability (NCI-H661; first compound 0.02 µM) was 0.685, the relative viability (NCI-H661; first compound 0.06325 µM) was 0.527 and the relative viability (NCI-H661; first compound 0.2 µM) was 0.182.
